Experimental data reported in patent US5968948A, “Annelated dihydropyridines and the use thereof for preparing pharmaceutical preparations” (Boerhinger Ingelheim GmbH, priority 1993, dated 1999).

System: RBL-2H3-cells
Test: Antigen-induced (DNP-BSA) activation of sensitised RBL-2H3 cells, fluorometric calcium measurement
Type: cell-based
Details: Rattus norvegicus, read-out: inhibition of the antigen-induced cell activation
Protocol: Individual RBL-2H3-cells (a tumour cell line related to the mast cells) adhering to glass slides are used.
The cultivation and attachment of the RBL-2H3-cells are carried out by the method described by HIDE and BEAVEN (1991). In order to sensitise the adhesive RBL-2H3-cells the cells are incubated for 2 hours at ambient temperature with a 1:2000 diluted commercial gammaglobulin E-solution against a dinitrophenol-bovine serum albumin complex (DNP-BSA-antigen). The cells are then washed. By the addition of 0.1 ml of DNP-BSA-solution (10 μg/ml) there is a massive immunological cell activation which is mediated by a cytoplasmic Ca^2+ -overload. The fluorometric calcium measurement in the cytoplasm of individual adhering RBL-2H3-cells is carried out analogously to the method described by KUDO and OGURA (1986) for neuronal cells, which is also explained hereinbefore in this specification.
The comparison used in these investigations is (10 μM) chromoglycate which brings about an approximately 50% inhibition of the antigen-induced cell activation.

SMILES: O=C(O)c1cc(=O)c2c(OCC(O)COc3cccc4oc(C(=O)O)cc(=O)c34)cccc2o1 [chromoglycate]
- inhibition at 10 µM: ~50%
